biological target: Complement factor D (Homo sapiens, UniProt P00746); assay: Not found
Description: Not found

Complement factor D, sequence (P00746 whole entry): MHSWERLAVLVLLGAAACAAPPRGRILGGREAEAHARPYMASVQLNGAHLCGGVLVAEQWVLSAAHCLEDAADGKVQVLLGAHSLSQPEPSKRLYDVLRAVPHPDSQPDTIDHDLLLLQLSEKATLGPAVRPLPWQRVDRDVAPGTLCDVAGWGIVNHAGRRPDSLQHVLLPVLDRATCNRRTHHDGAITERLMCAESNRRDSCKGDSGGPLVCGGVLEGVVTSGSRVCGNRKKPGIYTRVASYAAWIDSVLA

| Structure (SMILES) | IC50 |
| --- | --- |
| NC(=O)c1nn(CC(=O)N2C[C@H](F)C[C@H]2C(=O)Nc2cccc(-c3ccc4[nH]cnc4c3Cl)c2F)c2ccc(Br)cc12 [US10807952, Cmp No. 4] | < 1000 nM |
| NC(=O)c1nn(CC(=O)N2C[C@H](F)C[C@H]2C(=O)Nc2cccc(-c3nc4cccc(Cl)c4[nH]3)c2F)c2ccccc12 [US10807952, Cmp No. 27] | < 1000 nM |
| NC(=O)c1cccc(CC(=O)N2C[C@H](F)C[C@H]2C(=O)Nc2cccc(-c3ccccc3Cl)c2F)n1 [US10807952, Cmp No. 38] | < 1000 nM |

More lines, now with the values ahead:

| IC50 | Structure (SMILES) |
| --- | --- |
| < 1000 nM | CC(=O)c1nn(CC(=O)N2C[C@H](F)C[C@H]2C(=O)Nc2cccc(-c3ccc4[nH]cnc4c3Cl)c2F)c2cnccc12 [US10807952, Cmp No. 1] |
| < 1000 nM | NC(=O)c1nn(CC(=O)N2C[C@H](F)C[C@H]2C(=O)Nc2cccc(Br)n2)c2cc(C(F)(F)F)sc12 [US10807952, Cmp No. 34] |

— BindingDB's records for patent US10807952 (Achillion Pharmaceuticals, Inc., 2020)
